Reference: patent US4251546A, “Process for killing internal helminths using certain 1,1-bis-(2-substituted-3-nitrophenyl)alkane or alkylene derivatives” (ICI Australia Limited, priority 1977, dated 1981)

Assays:
live Fasciola hepatica = experiment: Minimum effective concentration against live Fasciola hepatica in Hedon-Fleig medium (Table 4); conditions: in vitro, assessed 24 hours after treatment, read-out: MINIMUM EFFECTIVE CONCENTRATION (minimum concentration required to kill Fasciola hepatica)
Procedure: The minimum effective concentration of compounds of formula I against live Fasciola hepatica was tested by the direct application of the test compound, in solution, to live Fasciola hepatica in Hedon-Fleig medium. The results are given in Table 4 where the minimum effective concentration (minimum concentration required to kill Fasciola hepatica) was assessed 24 hours after treatment with the test compound.

[1] = tested on: sheep liver fluke (Fasciola hepatica); experiment: Fluke egg count in faeces and adult fluke count in liver of infected sheep after a single s/c dose (Table 3); assay type: in vivo; conditions: for POST MORTEM RESULT No. of adult fluke: liver
Procedure: Compositions suitable for use as experimental injectable solutions were prepared by formulating the compounds as solutions of their salts either in water or in a mixture of water and ethylene glycol or water and polyethylene glycol (PEG200).
Compositions prepared by the method of Example 10 were used as a single dose to test sheep infected with sheep liver fluke (Fasciola hepatica). The number of liver fluke eggs in the faeces was measured at the time of treatment and at selected intervals up to 30 days after treatment. The sheep were killed and the number of adult fluke in the liver counted. The amount and structure of the active ingredient in each composition and the results of treatment of a sheep with that composition are given in the Table 3 below. The compositions were administered by sub-cutaneous injection (s/c).

O=[N+]([O-])c1cc(Cl)cc(C(OCCC(c2ccccc2)c2ccccc2)c2cc(Cl)cc([N+](=O)[O-])c2O)c1O [Compound 42]
minimal effective concentration (live Fasciola hepatica): 1 µg/mL

CC(C)COC(c1cc(Cl)cc([N+](=O)[O-])c1O)c1cc(Cl)cc([N+](=O)[O-])c1O [Compound 24, bis(5-chloro-2-hydroxy-3-nitrophenyl)methyl isobutyl ether]
FAECAL EGG COUNT, day 7 ([1]; single dose 6.0 mg/kg): 20 Eggs/g faeces | FAECAL EGG COUNT, day 14 ([1]; single dose 6.0 mg/kg): 10 Eggs/g faeces | POST MORTEM RESULT No. of adult fluke ([1]; single dose 6.0 mg/kg): 0

O=[N+]([O-])c1cc(Cl)cc(C(c2cc(Cl)cc([N+](=O)[O-])c2O)C(F)(F)C(F)(F)C(F)(F)F)c1O [Compound 55]
FAECAL EGG COUNT, day 7 ([1]; single dose 2.0 mg/kg): 20 Eggs/g faeces | FAECAL EGG COUNT, day 14 ([1]; single dose 2.0 mg/kg): 0 Eggs/g faeces | POST MORTEM RESULT No. of adult fluke ([1]; single dose 2.0 mg/kg): 1 | FAECAL EGG COUNT, day 7 ([1]; single dose 6.0 mg/kg): 50 Eggs/g faeces | FAECAL EGG COUNT, day 14 ([1]; single dose 6.0 mg/kg): 20 Eggs/g faeces | POST MORTEM RESULT No. of adult fluke ([1]; single dose 6.0 mg/kg): 0

COc1ccc(CSC(c2cc(Cl)cc([N+](=O)[O-])c2O)c2cc(Cl)cc([N+](=O)[O-])c2O)cc1 [Compound 48]
minimal effective concentration (live Fasciola hepatica): 1 µg/mL

O=[N+]([O-])c1cc(Cl)cc(Cc2cc(Cl)cc([N+](=O)[O-])c2O)c1O [Compound 1]
FAECAL EGG COUNT, day 7 ([1]; single dose 12.5 mg/kg): 0 Eggs/g faeces | FAECAL EGG COUNT, day 14 ([1]; single dose 12.5 mg/kg): 50 Eggs/g faeces | FAECAL EGG COUNT, day 30 ([1]; single dose 12.5 mg/kg, day 30): 0 Eggs/g faeces | POST MORTEM RESULT No. of adult fluke ([1]; single dose 12.5 mg/kg): 0

O=[N+]([O-])c1cc(Cl)cc(C(OCc2ccc(Cl)cc2)c2cc(Cl)cc([N+](=O)[O-])c2O)c1O [Compound 38]
minimal effective concentration (live Fasciola hepatica): 1 µg/mL

O=[N+]([O-])c1cc(Cl)cc(C(Oc2cccc(F)c2)c2cc(Cl)cc([N+](=O)[O-])c2O)c1O [Compound 34]
minimal effective concentration (live Fasciola hepatica): 5 µg/mL

CC(c1cc(Cl)cc([N+](=O)[O-])c1O)c1cc(Cl)cc([N+](=O)[O-])c1O [Compound 7]
FAECAL EGG COUNT, day 7 ([1]; single dose 5.0 mg/kg): 0 Eggs/g faeces | FAECAL EGG COUNT, day 14 ([1]; single dose 5.0 mg/kg): 50 Eggs/g faeces | FAECAL EGG COUNT, day 7 ([1]; single dose 8.0 mg/kg): 0 Eggs/g faeces | FAECAL EGG COUNT, day 14 ([1]; single dose 8.0 mg/kg): 0 Eggs/g faeces | POST MORTEM RESULT No. of adult fluke ([1]; single dose 8.0 mg/kg): 0 | FAECAL EGG COUNT, day 7 ([1]; single dose 12.5 mg/kg): 20 Eggs/g faeces | FAECAL EGG COUNT, day 14 ([1]; single dose 12.5 mg/kg): 0 Eggs/g faeces | POST MORTEM RESULT No. of adult fluke ([1]; single dose 12.5 mg/kg): 0 | FAECAL EGG COUNT, day 7 ([1]; single dose 20.0 mg/kg): 0 Eggs/g faeces | FAECAL EGG COUNT, day 13 ([1]; single dose 20.0 mg/kg, day 13): 0 Eggs/g faeces | POST MORTEM RESULT No. of adult fluke ([1]; single dose 20.0 mg/kg): 0

CC(=O)Oc1c(C(=C(Cl)Cl)c2cc(Cl)cc([N+](=O)[O-])c2OC(C)=O)cc(Cl)cc1[N+](=O)[O-] [Compound 17]
FAECAL EGG COUNT, day 7 ([1]; single dose 12.0 mg/kg): 110 Eggs/g faeces | FAECAL EGG COUNT, day 14 ([1]; single dose 12.0 mg/kg): 0 Eggs/g faeces | POST MORTEM RESULT No. of adult fluke ([1]; single dose 12.0 mg/kg): 0

CC(c1cc(Cl)cc([N+](=O)[O-])c1O)c1cc(Br)cc([N+](=O)[O-])c1O (stereo not shown) [Compound 8, 1-(5-Bromo-2-hydroxy-3-nitrophenyl)-1-(5-chloro-2-hydroxy-3-nitrophenyl)ethane]
FAECAL EGG COUNT, day 7 ([1]; single dose 4.0 mg/kg): 110 Eggs/g faeces | FAECAL EGG COUNT, day 14 ([1]; single dose 4.0 mg/kg): 80 Eggs/g faeces | FAECAL EGG COUNT, day 7 ([1]; single dose 6.0 mg/kg): 20 Eggs/g faeces | FAECAL EGG COUNT, day 14 ([1]; single dose 6.0 mg/kg): 10 Eggs/g faeces | POST MORTEM RESULT No. of adult fluke ([1]; single dose 6.0 mg/kg): 0 | FAECAL EGG COUNT, day 7 ([1]; single dose 8.0 mg/kg): 0 Eggs/g faeces | FAECAL EGG COUNT, day 14 ([1]; single dose 8.0 mg/kg): 0 Eggs/g faeces | POST MORTEM RESULT No. of adult fluke ([1]; single dose 8.0 mg/kg): 0 | FAECAL EGG COUNT, day 7 ([1]; single dose 12.5 mg/kg): 0 Eggs/g faeces | FAECAL EGG COUNT, day 14 ([1]; single dose 12.5 mg/kg): 0 Eggs/g faeces | POST MORTEM RESULT No. of adult fluke ([1]; single dose 12.5 mg/kg): 0

O=[N+]([O-])c1cc(Cl)cc(C(OCc2ccc(F)cc2)c2cc(Cl)cc([N+](=O)[O-])c2O)c1O [Compound 40]
FAECAL EGG COUNT, day 7 ([1]; single dose 2.0 mg/kg): 0 Eggs/g faeces | FAECAL EGG COUNT, day 14 ([1]; single dose 2.0 mg/kg): 130 Eggs/g faeces | FAECAL EGG COUNT, day 7 ([1]; single dose 6.0 mg/kg): 0 Eggs/g faeces | FAECAL EGG COUNT, day 14 ([1]; single dose 6.0 mg/kg): 0 Eggs/g faeces | POST MORTEM RESULT No. of adult fluke ([1]; single dose 6.0 mg/kg): 0

CC(C)SC(c1cc(Cl)cc([N+](=O)[O-])c1O)c1cc(Cl)cc([N+](=O)[O-])c1O [Compound 30]
FAECAL EGG COUNT, day 7 ([1]; single dose 12.0 mg/kg): 10 Eggs/g faeces | FAECAL EGG COUNT, day 14 ([1]; single dose 12.0 mg/kg): 0 Eggs/g faeces | POST MORTEM RESULT No. of adult fluke ([1]; single dose 12.0 mg/kg): 1

CC(C)(c1cc(F)cc([N+](=O)[O-])c1O)c1cc(F)cc([N+](=O)[O-])c1O [Compound 19, 2,2'-Isopropylidene bis(4-fluoro-6-nitrophenol)]
FAECAL EGG COUNT, day 7 ([1]; single dose 12.5 mg/kg): 210 Eggs/g faeces | FAECAL EGG COUNT, day 14 ([1]; single dose 12.5 mg/kg): 180 Eggs/g faeces
